In ChEMBL document CHEMBL5678818, “Discovery of potent SOS1 inhibitors that block RAS activation via disruption of the RAS-SOS1 interaction” (Proc Natl Acad Sci U S A, 2019):

Columns and labels:
[1] = target: Son of sevenless homolog 2 (Homo sapiens, UniProt Q07890); experiment: Inhibition of N-terminal His10-tagged wild-type recombinant human SOS2 catalytic domain (564 to 1043 residues) expressed in Escherichia coli assessed as reduction in KRAS G12C mutant activation preincubated for 10 mins with KRAS followed by SOS2 addition measured after 30 mins in presence of EDA-GTP-DY-647P1 by HTRF analysis
Sequence of Son of sevenless homolog 2 (Q07890 whole entry, looked up, stated change not applied, the tested form may be a part): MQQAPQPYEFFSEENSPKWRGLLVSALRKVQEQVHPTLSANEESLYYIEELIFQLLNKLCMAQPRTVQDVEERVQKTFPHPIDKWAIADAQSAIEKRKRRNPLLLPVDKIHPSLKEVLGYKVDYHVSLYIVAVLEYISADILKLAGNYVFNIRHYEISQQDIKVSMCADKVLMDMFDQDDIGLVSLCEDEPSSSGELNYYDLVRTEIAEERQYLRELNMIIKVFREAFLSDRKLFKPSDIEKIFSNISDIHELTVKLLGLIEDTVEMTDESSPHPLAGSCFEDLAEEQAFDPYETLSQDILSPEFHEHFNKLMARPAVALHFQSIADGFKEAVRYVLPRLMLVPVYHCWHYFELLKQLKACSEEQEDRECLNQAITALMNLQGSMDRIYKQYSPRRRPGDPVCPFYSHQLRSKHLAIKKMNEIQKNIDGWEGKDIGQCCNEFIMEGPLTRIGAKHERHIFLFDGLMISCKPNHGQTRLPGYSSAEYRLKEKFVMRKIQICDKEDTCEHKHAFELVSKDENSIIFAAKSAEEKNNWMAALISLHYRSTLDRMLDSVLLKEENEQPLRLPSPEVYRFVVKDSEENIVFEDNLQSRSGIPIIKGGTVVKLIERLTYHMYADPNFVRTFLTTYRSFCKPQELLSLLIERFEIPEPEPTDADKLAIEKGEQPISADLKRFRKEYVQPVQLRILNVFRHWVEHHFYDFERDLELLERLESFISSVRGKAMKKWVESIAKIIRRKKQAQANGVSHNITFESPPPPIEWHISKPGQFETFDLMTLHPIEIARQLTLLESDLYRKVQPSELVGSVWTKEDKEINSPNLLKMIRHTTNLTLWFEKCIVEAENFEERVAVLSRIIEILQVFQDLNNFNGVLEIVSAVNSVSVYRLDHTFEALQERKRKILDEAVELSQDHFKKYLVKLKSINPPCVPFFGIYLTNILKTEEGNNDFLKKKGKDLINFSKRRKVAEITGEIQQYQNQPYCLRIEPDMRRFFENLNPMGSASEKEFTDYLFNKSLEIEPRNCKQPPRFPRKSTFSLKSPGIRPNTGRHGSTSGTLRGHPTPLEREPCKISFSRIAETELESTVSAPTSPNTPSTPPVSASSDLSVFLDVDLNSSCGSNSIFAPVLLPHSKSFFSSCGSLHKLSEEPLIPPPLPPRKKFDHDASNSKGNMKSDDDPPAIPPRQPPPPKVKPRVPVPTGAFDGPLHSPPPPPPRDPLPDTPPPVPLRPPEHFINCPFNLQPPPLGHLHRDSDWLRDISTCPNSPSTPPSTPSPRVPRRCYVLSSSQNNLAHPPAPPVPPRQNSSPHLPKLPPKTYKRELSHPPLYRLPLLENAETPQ

[2] = target: T1, Guanine nucleotide exchange factor DBS (Homo sapiens, UniProt O15068); experiment: Inhibition of human DBS assessed as reduction in CDC42 activation preincubated for 1 min with CDC42 followed by DBS addition measured after 20 mins in presence of EDA-GTP-DY-647P1 by HTRF analysis
T1 sequence (O15068 whole entry): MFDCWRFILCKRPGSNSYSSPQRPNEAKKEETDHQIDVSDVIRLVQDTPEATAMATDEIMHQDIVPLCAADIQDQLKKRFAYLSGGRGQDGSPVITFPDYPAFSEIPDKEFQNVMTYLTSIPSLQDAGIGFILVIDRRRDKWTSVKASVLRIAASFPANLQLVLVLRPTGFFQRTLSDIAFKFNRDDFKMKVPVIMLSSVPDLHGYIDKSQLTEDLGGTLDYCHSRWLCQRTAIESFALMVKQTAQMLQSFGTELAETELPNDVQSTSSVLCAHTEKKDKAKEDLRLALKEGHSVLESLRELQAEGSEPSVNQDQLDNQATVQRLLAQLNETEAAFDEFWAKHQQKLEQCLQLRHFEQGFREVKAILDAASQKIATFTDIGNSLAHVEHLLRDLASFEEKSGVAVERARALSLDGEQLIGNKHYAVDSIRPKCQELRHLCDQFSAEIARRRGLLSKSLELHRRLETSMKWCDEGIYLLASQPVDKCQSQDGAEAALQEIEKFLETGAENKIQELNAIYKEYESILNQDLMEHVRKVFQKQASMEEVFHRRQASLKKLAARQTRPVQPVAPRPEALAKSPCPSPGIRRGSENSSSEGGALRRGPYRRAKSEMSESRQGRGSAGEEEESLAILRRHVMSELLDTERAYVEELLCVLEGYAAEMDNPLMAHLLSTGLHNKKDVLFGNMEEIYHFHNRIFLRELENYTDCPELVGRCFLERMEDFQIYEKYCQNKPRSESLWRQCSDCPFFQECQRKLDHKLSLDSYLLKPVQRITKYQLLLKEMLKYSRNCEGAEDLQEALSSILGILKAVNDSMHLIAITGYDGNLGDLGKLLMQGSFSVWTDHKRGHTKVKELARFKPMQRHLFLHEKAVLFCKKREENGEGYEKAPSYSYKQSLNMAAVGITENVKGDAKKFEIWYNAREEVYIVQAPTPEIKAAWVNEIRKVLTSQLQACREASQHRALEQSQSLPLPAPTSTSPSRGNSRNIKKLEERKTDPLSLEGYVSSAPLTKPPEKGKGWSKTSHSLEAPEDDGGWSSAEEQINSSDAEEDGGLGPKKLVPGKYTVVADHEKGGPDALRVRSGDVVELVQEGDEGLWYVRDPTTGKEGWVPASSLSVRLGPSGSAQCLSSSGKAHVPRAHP

[3] = target: Epidermal growth factor receptor (Homo sapiens, UniProt P00533); experiment: Inhibition of human EGFR using biotin-aminohexyl-AEEEEYFELVAKKK as substrate preincubated for 15 mins followed by substrate/ATP addition measured after 20 mins by FRET assay
Sequence of Epidermal growth factor receptor (P00533 whole entry, canonical isoform): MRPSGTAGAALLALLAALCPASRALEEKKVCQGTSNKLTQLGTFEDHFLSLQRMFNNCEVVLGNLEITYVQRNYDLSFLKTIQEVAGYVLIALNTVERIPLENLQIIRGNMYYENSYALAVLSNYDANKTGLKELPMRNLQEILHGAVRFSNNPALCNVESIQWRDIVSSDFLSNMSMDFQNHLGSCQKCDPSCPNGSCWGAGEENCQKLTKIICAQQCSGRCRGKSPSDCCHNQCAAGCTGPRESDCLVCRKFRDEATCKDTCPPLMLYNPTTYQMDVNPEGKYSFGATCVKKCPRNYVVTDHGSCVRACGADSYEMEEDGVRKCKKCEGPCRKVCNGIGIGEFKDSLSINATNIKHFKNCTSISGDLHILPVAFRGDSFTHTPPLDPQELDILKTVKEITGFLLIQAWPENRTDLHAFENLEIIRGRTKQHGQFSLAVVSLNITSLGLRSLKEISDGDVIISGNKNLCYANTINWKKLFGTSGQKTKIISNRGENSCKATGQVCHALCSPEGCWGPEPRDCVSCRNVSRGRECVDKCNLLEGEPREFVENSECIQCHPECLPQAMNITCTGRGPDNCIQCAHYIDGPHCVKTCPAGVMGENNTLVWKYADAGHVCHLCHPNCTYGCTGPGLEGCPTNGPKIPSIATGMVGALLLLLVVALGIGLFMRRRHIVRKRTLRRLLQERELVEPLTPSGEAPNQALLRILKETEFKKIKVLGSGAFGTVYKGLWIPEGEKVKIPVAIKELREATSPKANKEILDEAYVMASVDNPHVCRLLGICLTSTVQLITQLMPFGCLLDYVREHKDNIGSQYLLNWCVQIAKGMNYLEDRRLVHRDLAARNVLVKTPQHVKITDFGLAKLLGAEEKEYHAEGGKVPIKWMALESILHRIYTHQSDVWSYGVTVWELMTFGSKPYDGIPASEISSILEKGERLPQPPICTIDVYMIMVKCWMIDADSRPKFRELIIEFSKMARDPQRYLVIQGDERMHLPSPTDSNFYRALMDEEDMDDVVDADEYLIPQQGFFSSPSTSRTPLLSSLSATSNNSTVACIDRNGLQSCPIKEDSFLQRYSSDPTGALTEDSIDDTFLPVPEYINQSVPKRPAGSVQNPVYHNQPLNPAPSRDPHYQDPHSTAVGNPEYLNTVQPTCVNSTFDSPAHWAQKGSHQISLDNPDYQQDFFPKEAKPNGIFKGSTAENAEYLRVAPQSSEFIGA

[4] = target: Casein kinase I isoform epsilon (Homo sapiens) (UniProt P49674); experiment: Inhibition of CSNK1E (unknown origin) assessed as residual activity at 1000 nM by KINOMEscan analysis relative to control
Sequence of Casein kinase I isoform epsilon (Homo sapiens) (P49674 whole entry, looked up, canonical isoform): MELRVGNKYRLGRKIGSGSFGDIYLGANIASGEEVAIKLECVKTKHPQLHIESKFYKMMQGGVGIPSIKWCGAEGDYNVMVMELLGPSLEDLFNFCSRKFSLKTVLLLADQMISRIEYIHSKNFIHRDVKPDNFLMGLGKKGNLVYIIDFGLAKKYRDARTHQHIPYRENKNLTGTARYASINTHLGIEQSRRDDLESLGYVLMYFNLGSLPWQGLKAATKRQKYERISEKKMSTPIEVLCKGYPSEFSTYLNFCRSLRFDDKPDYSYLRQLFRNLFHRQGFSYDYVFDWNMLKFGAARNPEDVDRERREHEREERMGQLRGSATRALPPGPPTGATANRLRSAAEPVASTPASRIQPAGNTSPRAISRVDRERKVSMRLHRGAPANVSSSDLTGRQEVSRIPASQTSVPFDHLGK

[5] = system: Proto-oncogene tyrosine-protein kinase receptor Ret (Homo sapiens), P07949 [V804M]; experiment: Inhibition of RET V804M mutant (unknown origin) assessed as residual activity at 1000 nM by KINOMEscan analysis relative to control
Sequence of Proto-oncogene tyrosine-protein kinase receptor Ret (Homo sapiens), P07949 [V804M] (P07949 whole entry V804M): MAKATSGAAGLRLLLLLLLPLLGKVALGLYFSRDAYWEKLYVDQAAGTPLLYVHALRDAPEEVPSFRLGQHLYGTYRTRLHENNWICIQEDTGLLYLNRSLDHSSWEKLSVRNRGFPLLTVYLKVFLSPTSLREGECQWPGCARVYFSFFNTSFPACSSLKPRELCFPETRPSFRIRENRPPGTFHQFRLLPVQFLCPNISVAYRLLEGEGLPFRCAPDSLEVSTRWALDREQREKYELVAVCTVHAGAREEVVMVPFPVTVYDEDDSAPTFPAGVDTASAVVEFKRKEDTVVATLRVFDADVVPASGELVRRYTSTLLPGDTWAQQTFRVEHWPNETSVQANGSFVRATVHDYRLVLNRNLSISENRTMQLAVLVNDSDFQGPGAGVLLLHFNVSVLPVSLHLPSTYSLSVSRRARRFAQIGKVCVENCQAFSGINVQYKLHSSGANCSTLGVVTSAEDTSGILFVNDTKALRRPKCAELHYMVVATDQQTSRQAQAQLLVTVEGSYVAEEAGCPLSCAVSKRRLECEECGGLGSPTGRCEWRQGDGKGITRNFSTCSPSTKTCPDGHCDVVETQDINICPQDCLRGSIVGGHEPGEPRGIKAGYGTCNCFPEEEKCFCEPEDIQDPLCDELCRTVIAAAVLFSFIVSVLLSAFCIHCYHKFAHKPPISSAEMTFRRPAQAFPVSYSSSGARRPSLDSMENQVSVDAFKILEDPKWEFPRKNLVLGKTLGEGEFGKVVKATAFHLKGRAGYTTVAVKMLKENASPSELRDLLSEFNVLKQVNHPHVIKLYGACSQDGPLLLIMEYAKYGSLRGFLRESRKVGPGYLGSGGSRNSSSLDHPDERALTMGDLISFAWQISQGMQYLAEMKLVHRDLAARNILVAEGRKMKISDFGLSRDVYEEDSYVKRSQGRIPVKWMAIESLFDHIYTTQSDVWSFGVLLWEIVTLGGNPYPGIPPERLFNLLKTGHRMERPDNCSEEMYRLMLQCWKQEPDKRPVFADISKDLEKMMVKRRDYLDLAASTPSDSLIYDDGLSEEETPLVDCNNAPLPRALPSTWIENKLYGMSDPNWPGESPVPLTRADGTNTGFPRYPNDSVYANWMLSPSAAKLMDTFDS

[6] = target: T2, Mitogen-activated protein kinase kinase kinase 19 (Homo sapiens) (UniProt Q56UN5); experiment: Inhibition of YSK4 (unknown origin) assessed as residual activity at 1000 nM by KINOMEscan analysis relative to control
T2 sequence (whole entry): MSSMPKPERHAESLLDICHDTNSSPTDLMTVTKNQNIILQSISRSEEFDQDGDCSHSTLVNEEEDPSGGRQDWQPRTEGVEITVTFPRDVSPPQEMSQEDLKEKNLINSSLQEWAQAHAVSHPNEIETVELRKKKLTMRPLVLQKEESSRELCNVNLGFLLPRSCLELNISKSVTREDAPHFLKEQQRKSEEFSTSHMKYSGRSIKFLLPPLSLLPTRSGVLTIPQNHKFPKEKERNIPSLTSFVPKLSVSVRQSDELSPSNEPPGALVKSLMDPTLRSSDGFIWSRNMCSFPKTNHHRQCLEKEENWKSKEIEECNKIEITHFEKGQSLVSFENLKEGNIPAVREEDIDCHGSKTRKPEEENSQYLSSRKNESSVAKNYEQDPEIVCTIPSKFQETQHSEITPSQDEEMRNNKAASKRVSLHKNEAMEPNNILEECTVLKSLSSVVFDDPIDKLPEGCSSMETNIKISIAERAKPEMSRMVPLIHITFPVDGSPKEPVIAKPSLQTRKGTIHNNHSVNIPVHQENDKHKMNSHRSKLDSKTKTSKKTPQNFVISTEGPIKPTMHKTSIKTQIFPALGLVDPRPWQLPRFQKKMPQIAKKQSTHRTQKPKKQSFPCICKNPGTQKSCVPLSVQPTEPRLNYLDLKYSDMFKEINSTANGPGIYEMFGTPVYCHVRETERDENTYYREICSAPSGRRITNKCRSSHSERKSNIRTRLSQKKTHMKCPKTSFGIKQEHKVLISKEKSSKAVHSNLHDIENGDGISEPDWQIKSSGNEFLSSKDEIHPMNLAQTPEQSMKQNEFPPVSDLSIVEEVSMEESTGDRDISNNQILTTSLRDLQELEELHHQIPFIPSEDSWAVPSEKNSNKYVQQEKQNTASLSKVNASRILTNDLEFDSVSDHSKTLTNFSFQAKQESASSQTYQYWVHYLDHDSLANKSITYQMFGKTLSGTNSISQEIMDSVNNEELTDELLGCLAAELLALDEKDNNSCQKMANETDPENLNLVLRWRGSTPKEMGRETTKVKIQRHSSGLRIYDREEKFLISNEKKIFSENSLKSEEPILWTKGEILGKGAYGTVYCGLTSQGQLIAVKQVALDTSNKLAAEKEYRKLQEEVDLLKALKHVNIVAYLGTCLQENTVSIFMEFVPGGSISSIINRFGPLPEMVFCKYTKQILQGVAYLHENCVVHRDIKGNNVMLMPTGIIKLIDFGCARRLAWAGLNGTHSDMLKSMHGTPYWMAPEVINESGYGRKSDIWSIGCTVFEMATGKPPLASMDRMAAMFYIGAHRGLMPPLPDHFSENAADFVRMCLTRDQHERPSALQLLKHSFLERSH

MOLM-13 = experiment: Antiproliferative activity against human MOLM-13 cells assessed as inhibition of cell viability incubated for 72 hrs by Cell Titer Glo assay; format: functional, cell-based; conditions: MOLM-13, 72 h

Row | Structure (SMILES) | IC50 [1] [µM] | IC50 [2] [µM] | IC50 [3] [µM] | Activity [4] [%] | Activity [5] [%] | Activity [6] [%] | IC50 (MOLM-13) [µM]
1 | COc1cc2nc(C)nc(N[C@H](C)c3cccc(-c4cn[nH]c4)c3)c2cc1OC | > 20 | > 20 | > 20 | 97 | 92 | 84 | 3.54
2 | COc1cc2ncnc(N[C@H](C)c3cccc4ccccc34)c2cc1OC | > 20 | > 20 | 0.58 | 100 | 100 | 90 | 2.53
3 | CNCc1ccccc1-c1csc([C@@H](C)Nc2nc(C)nc3cc(OC)c(OC)cc23)c1 [BAY-293] | > 20 | > 20 | > 20 |  |  |  | 0.995
